One series concerns the target T1, CYP2J2 (Homo sapiens, UniProt P51589).
T1 sequence (P51589 1-502): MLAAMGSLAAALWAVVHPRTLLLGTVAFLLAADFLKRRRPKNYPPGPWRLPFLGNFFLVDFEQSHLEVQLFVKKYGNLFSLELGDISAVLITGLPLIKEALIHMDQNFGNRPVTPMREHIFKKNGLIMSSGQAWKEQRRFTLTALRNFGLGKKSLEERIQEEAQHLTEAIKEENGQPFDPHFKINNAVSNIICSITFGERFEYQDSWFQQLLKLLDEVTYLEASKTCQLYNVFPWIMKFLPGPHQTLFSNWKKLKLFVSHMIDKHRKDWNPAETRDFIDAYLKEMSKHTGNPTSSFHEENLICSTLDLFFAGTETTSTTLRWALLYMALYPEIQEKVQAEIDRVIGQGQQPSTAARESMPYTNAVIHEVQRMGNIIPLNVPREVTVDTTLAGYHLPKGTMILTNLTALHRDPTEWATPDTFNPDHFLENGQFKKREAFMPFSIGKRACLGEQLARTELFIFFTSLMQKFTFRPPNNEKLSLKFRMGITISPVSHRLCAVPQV
The series can be described thus: Time- and concentration-dependent inactivation (MBI) of CYP2J2, rivaroxaban as probe substrate. Type of series: biochemical. Also on record: purchased BD Gentest (Woburn, Mass.). The protocol:
Incubations were conducted in triplicates in 96-well plates. Primary incubation mixtures comprising various concentrations of inhibitor (0-20 μM) were pre-incubated at 37° C. for 3 min with CYP450 enzymes (20 pmol/m L) and NADPH B in potassium phosphate buffer (100 mM, pH 7.4). To initiate the enzymatic reaction, 5 μL NADPH A was added to the primary incubation. The final primary incubation mixture volume was 100 μL and contained <1% v/v organic solvent. At different pre-incubation time points (3, 8, 15, 22, 30, and 45 min) after the addition of NADPH A, 5 μL aliquots of the primary incubation were transferred to 95 μL of the secondary incubation containing 50 μM rivaroxaban, the NADPH A and B, and potassium phosphate buffer (100 mM, pH 7.4) to yield a 20-fold dilution. The secondary incubation mixtures were incubated at 37° C. for 30 min with CYP2J2, before 80 μL aliquots were removed and quenched with an equal volume of ice-cold ACN containing 4 μM dexamethasone as IS. The samples were then centrifuged at 3220 g at 4° C. for 30 min before transferring the supernatant to a 96-well plate for liquid chromatography-tandem mass spectrometry (LC-MS/MS) analysis. The main rivaroxaban metabolite, morpholinone hydroxylated metabolite, was quantified using LC-MS/MS analysis.
The mean of triplicate peak area ratios for each concentration and pre-incubation time was normalized to that of 0 μM with the same pre-incubation time. The amount of rivaroxaban metabolite formed during the secondary incubation, a measure of the probe substrate activity remaining, was computed and the natural logarithm of this measure was plotted against inactivation pre-incubation time for each inactivator concentration. […]
In equation 1, kinact=maximum inactivation rate constant at infinite inactivator concentration (in min^−1); KI=concentration of inactivator at the half-maximal rate constant of inactivation (in μM); [I]=in vitro inactivator concentration (in μM). MBI potency (kinact/KI ratio, μM-1·min-1) against human recombinant CYP2J2 is determined for each compound. […]

In the next series the test system is H9c2 cells. In words: Reduction of intracellular ATP (Mitochondrial ToxGlo) in differentiated H9c2 cells. Type of series: cell-based. The note with it: Rattus norvegicus; H9c2 cells, 6 h exposure; read-out: decrease in intracellular ATP levels IC50. On the procedure: H9c2 cell line was purchased from American Tissue Type Collection (ATCC) (Manassas, Va.). The cells were cultured in low-glucose DMEM growth media (Cat No: 31600, Thermo Fisher Scientific, Waltham, Mass.) supplemented with 1.5 g/L sodium bicarbonate, 25 mM HEPES, 10% fetal bovine serum (FBS) (GE Healthcare, Singapore), 100 units/mL penicillin, 100 μg/mL streptomycin and 250 ng/mL amphotericin B in 75-cm^2 tissue-culture flasks at 37° C. in a humidified atmosphere of 5% CO2. Cells were fed every 2-3 days and sub-cultured once 70-80% confluency was achieved to prevent the loss of differentiation potential. For differentiation, H9c2 cells were seeded at a density of 100,000 cells/well in 12-well plates. The cells were maintained for 1 day in low-glucose high-serum growth media to allow for cell attachment. Subsequently, cells were differentiated using 1 μM ATRA.
H9c2 cells were seeded in a white chimney plate and differentiated. The media was changed to DMEM with 10 mM galactose, 2 mM glutamine (6 mM final), 5 mM HEPES, 1 mM sodium pyruvate, 100 U/mL penicillin, 100 μg/mL streptomycin, 0.25 μg/mL amphotericin B, 1% FBS, 1× insulin-transferrin-selenium and 1 μM ATRA for 48 h to overcome the Crabtree effect. […] The cytotoxicity and intracellular ATP content were measured concurrently using Mitochondrial ToxGlo™ kit (Promega, Madison, Wis.) using manufacturer's protocol. Mitochondrial ToxGlo™ assay measures the cell viability using fluorogenic peptide bis-alanine-alanine-phenylalanine-R110 (bis-AAF-R110). Bis-AAF-R110 is a selective peptide that measures protease activity in dead cells since it is impermeable to live cells. Here, the fluorescence derived from metabolized bis-AAF-R110 was measured at different concentrations of the test compounds and compared to control. As the concentration of cytotoxic compound increases, the number of dead cells increases, leading to a higher fluorescence signal. ATP is measured by adding the ATP Detection Reagent, resulting in cell lysis and generation of a luminescent signal proportional to the amount of ATP present. […]

Consider `CCCCc1oc2ccc(NS(C)(=O)=O)cc2c1C(=O)c1ccc(OCCCN(CCCC)CCCC)cc1.Cl` [Dronedarone], for which the “inactivation (MBI) of CYP2J2, in words” value at CYP2J2 is on record as “demonstrated inactivation of CYP2J2”. For the same molecule, the IC50 (usually the concentration needed to halve the response being measured) in the series with H9c2 cells came to 3.1 µM.
For the molecule `Cl.[2H]c1c(NS(C)(=O)=O)c([2H])c2c(C(=O)c3ccc(OCCCN(CCCC)CCCC)cc3)c(CCCC)oc2c1[2H]` [Poyendarone, Methanesulfonamide, N-(2-butyl-3-(4-(3-(dibutylamino)propoxy)benzoyl)-1-benzo(4,6,7-d3)-furan-5-yl)hydrochloride], the “inactivation (MBI) of CYP2J2, in words” value on CYP2J2 is on record as “does not cause MBI of CYP2J2”. The IC50 with H9c2 cells was 41.5 µM.

Values taken from US20220267288A1, “CARDIAC THERAPEUTIC” (priority 2019, published 2022).
